Test results from US11780845B2 (Relay Therapeutics, Inc., priority 2019, dated 2023).

Assays:
FGFR2 = FGFR2 (Homo sapiens (Human), UniProt P21802); experiment: Biochemical FGFR2 Caliper assay
SNU-16 = experiment: Cell SNU-16 assay; type: cell-based
[1] = Homo sapiens, SNU-16, SNU-16 cells

Sequence of FGFR2 (P21802 22-821): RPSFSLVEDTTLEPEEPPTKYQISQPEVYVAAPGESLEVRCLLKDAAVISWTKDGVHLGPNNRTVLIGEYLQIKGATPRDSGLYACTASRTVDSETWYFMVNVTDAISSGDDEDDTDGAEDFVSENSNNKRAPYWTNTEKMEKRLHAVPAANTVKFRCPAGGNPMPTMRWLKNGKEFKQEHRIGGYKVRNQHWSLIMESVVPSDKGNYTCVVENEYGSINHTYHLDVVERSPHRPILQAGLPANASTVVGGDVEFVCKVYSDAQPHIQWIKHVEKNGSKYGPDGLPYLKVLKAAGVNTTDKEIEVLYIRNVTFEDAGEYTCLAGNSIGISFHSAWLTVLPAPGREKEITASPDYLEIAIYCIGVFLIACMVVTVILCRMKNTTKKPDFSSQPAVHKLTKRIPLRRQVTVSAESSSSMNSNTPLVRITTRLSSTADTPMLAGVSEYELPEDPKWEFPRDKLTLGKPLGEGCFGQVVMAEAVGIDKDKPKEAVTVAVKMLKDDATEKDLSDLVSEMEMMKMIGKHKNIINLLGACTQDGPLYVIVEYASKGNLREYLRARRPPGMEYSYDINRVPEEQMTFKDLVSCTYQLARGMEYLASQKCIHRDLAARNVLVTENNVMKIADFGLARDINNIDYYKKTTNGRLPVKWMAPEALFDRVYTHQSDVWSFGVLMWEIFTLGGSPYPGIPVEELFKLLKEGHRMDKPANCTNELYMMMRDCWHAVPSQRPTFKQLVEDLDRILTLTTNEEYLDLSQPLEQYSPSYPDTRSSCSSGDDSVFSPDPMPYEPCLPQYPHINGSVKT

SMILES	IC50 (FGFR2) [nM]	IC50 (SNU-16; [1]) [nM]	IC50 (SNU-16; SNU-16 cells) [nM]
COCC#Cc1cc(C)c(-c2c(C3=CC[C@@H](C(=O)N4CCC[C@H]4C)CC3)c3c(N)ncnc3n2C)cn1 [Example 1383]	250 to 1000	250 to 1000	–
C#Cc1cnc2ccc(-c3c(-c4ccc(Oc5nccc(C)n5)c(F)c4)c4c(N)ncnc4n3C)cc2n1 [Example 1384]	< 100	100 to 250	–
C#Cc1ncc2cc(-c3c(-c4ccc(Oc5nccc(C)n5)c(F)c4)c4c(N)ncnc4n3C)ccc2n1 [Example 1385]	< 100	≤ 100	–
COCC#Cc1cc(C)c(-c2c(-c3ccc(Oc4nccc(C)n4)cc3)c3c(N)ncnc3n2C)cn1 [Example 1386]	< 100	≤ 100	–
C#Cc1cc(C)c(-c2cn3ncnc(N)c3c2C2=CC[C@H](C(=O)N3CCC[C@H]3C)CC2)cn1 [Example 1387]	1000 to 100000	1000 to 100000	–
C#Cc1nc2cc(-c3c(-c4ccc(Oc5nccc(C)n5)c(F)c4)c4c(N)ncnc4n3C)c(F)cc2n1C [Example 1388]	< 100	≤ 100	–
C=C(C)C(=O)Nc1ccc(-c2c(-c3ccc(-c4cccc(O)c4)c(C#N)c3)c3c(N)ncnc3n2C)cc1 [Example 1389]	1000 to 100000	250 to 1000	–
C=C(C)C(=O)Nc1ccc(-c2c(-c3ccc4[nH]ncc4c3)c3c(N)ncnc3n2C)cc1 [Example 1390]	1000 to 100000	1000 to 100000	–
C#Cc1cc2c(cn1)-c1c(-c3ccc(Oc4nccc(C)n4)cc3)c3c(N)ncnc3n1CCC2 [Example 1391]	< 100	≤ 100	–
C#Cc1cc(C)c(-c2c(C3=CC[C@@]4(CC3)Cc3ccc(C)nc3O4)c3c(C)ncnc3n2C)cn1 [Example 1392]	1000 to 100000	1000 to 100000	–
C#Cc1cc(C)c(-c2c(C3=CC[C@@]4(CC3)Cc3ccc(C)nc3O4)c3c(N)ncnc3n2C)cn1 [Example 1393]	1000 to 100000	1000 to 100000	–
C#Cc1cc(C)c(-c2c(C3=CC[C@@]4(CC3)Cc3ccc(C)nc3C4=O)c3c(N)ncnc3n2C)cn1 [Example 1394]	100 to 250	100 to 250	–
C#Cc1nc2ccc(-c3c(-c4ccc(Oc5nccc(C)n5)c(F)c4)c4c(N)ncnc4n3C)cc2n1C [Example 1395]	< 100	≤ 100	–
C#Cc1cc(C)c(-c2c(C3=CC[C@]4(CC3)Cc3ccc(C)nc3O4)c3c(C)ncnc3n2C)cn1 [Example 1396]	250 to 1000	1000 to 100000	–
C#Cc1ncc(-c2c(-c3ccc(Oc4nccc(C)n4)c(F)c3)c3c(C)ncnc3n2C)c(C)c1OC [Example 1397]	250 to 1000	≤ 100	–
C#Cc1cc(C)c(-c2c(C3=CC[C@]4(CC3)Cc3ccc(C)nc3C4=O)c3c(N)ncnc3n2C)cn1 [Example 1398]	< 100	≤ 100	–
C#Cc1cc(C)c(-c2c(C3=CC[C@]4(CC3)Cc3ccc(C)nc3O4)c3c(N)ncnc3n2C)cn1 [Example 1399]	< 100	100 to 250	–
C#Cc1cc(C)c(-c2c(-c3ccc(Oc4nccc(C)n4)c(F)c3)c3c(C)ncnc3n2C)c(F)n1 [Example 1400]	< 100	≤ 100	–
C#Cc1cc(C)c(-c2c(-c3ccc(Oc4nccc(C)n4)c(F)c3)c3c(Cl)ncnc3n2C)c(F)n1 [Example 1401]	< 100	≤ 100	–
C#Cc1cc2cc(-c3c(-c4ccc(Oc5nccc(C)n5)c(F)c4)c4c(N)ncnc4n3C)ccc2cn1 [Example 1402]	1000 to 100000	1000 to 100000	–

SMILES	IC50 (FGFR2) [nM]	IC50 (SNU-16; [1]) [nM]	IC50 (SNU-16; SNU-16 cells) [nM]
C#Cc1cc(OC)c(-c2c(-c3ccc(Oc4nccc(C)n4)c(F)c3)c3c(Cl)ncnc3n2C)cn1 [Example 1403]	< 100	≤ 100	–
C#Cc1cc2ccc(-c3c(-c4ccc(Oc5nccc(C)n5)c(F)c4)c4c(N)ncnc4n3C)cc2cn1 [Example 1404]	250 to 1000	250 to 1000	–
C#Cc1ccc2cc(-c3c(-c4ccc(Oc5nccc(C)n5)c(F)c4)c4c(N)ncnc4n3C)ccc2n1 [Example 1405]	< 100	≤ 100	–
C#Cc1cc(C)c(-c2c(-c3ccc(Oc4nccc(C)n4)c(F)c3)c3c(C)ncnc3n2C)c(C)n1 [Example 1406]	< 100	≤ 100	–
C=C(C)c1ccc(-c2c(-c3ccc4nn[nH]c4c3)c3c(N)ncnc3n2C)cn1 [Example 1407]	250 to 1000	250 to 1000	–
C#Cc1cnc2cc(-c3c(-c4ccc(Oc5nccc(C)n5)c(F)c4)c4c(C)ncnc4n3C)ccc2n1 [Example 1408]	< 100	100 to 250	–
C#Cc1ncc2cc(-c3c(-c4ccc(Oc5nccc(C)n5)c(F)c4)c4c(N)ncnc4n3C)n(C)c2n1 [Example 1411]	< 100	≤ 100	–
C#Cc1ccc2ccc(-c3c(-c4ccc(Oc5nccc(C)n5)c(F)c4)c4c(N)ncnc4n3C)cc2n1 [Example 1412]	250 to 1000	250 to 1000	–
C#Cc1cnc2c(cc(-c3c(-c4ccc(Oc5nccc(C)n5)c(F)c4)c4c(N)ncnc4n3C)n2C)n1 [Example 1413]	< 100	≤ 100	–
C#Cc1cc(C)c(-c2c(-c3ccc(Oc4nccc(C)n4)c(F)c3)c3c(Cl)ncnc3n2C)c(F)n1 [Example 1416]	< 100	–	100 to 250
C#Cc1cc(C)c(-c2c(-c3ccc(Oc4nccc(C)n4)c(F)c3)c3c(Cl)ncnc3n2C)c(F)n1 [Example 1417]	< 100	–	≤ 100
C#Cc1cc(OC)c(-c2c(-c3ccc(Oc4nccc(C)n4)c(F)c3)c3c(C)ncnc3n2C)cn1 [Example 1418]	< 100	≤ 100	–
C=C(C)C(=O)Nc1ccc(-c2c(-c3cnc(-c4ccc(OC)cc4)s3)c3c(N)ncnc3n2C)cc1 [Example 1419]	< 100	≤ 100	–
C=C(C)C(=O)Nc1ccc(-c2c(-c3cnc(-c4cccc(OC)c4)s3)c3c(N)ncnc3n2C)cc1 [Example 1420]	250 to 1000	250 to 1000	–
C=C(C)C(=O)Nc1ccc(-c2c(-c3cnc(-c4cccc(F)c4)s3)c3c(N)ncnc3n2C)cc1 [Example 1421]	250 to 1000	250 to 1000	–
C=C(C)C(=O)Nc1ccc(-c2c(-c3cnc(-c4ccccc4C)s3)c3c(N)ncnc3n2C)cc1 [Example 1422]	250 to 1000	250 to 1000	–
C=C(C)C(=O)Nc1ccc(-c2c(-c3cnc(-c4cccc(C)c4)s3)c3c(N)ncnc3n2C)cc1 [Example 1423]	250 to 1000	250 to 1000	–
C=C(C)C(=O)Nc1ccc(-c2c(-c3cnc(-c4ccc(F)cc4)s3)c3c(N)ncnc3n2C)cc1 [Example 1424]	100 to 250	250 to 1000	–
C#Cc1cnc2cc(-c3c(-c4ccc(Oc5nccc(C)n5)c(F)c4)c4c(N)ncnc4n3C)ccc2c1 [Example 1425]	1000 to 100000	1000 to 100000	–
C#Cc1nc2cc(-c3c(-c4ccc(Oc5nccc(C)n5)c(F)c4)c4c(N)ncnc4n3C)c(OC)cc2n1C [Example 1426]	< 100	≤ 100	–

SMILES	IC50 (FGFR2) [nM]	IC50 (SNU-16; [1]) [nM]	IC50 (SNU-16; SNU-16 cells) [nM]
COCC#Cc1ccc2cc(-c3c(-c4ccc(Oc5nccc(C)n5)c(F)c4)c4c(N)ncnc4n3C)ccc2n1 [Example 1427]	< 100	≤ 100	–
C#Cc1cnc2cc(-c3c(-c4ccc(Oc5nccc(C)n5)c(F)c4)c4c(N)ncnc4n3C)c(C)cc2n1 [Example 1428]	< 100	≤ 100	–
C#Cc1ccc2cc(-c3c(-c4ccc(Oc5nccc(C)n5)c(F)c4)c4c(N)ncnc4n3C)cnc2n1 [Example 1429]	< 100	≤ 100	–
COCC#Cc1cc(OC)c(-c2c(-c3ccc(Oc4nccc(C)n4)c(F)c3)c3c(C)ncnc3n2C)cn1 [Example 1430]	< 100	≤ 100	–
[2H]C#Cc1cc(C)c(-c2c(-c3ccc(Oc4nccc(C)n4)c(F)c3)c3c(N)ncnc3n2C)cn1 [Example 1431]	< 100	≤ 100	–
C#Cc1cc(C)c(-c2c(-c3ccc(Oc4nccc(C)n4)c(F)c3)c3c(C(F)F)ncnc3n2C)cn1 [Example 1432]	1000 to 100000	1000 to 100000	–
C#Cc1cc(OC)c(-c2c(-c3ccc(Oc4nccc(C)n4)c(F)c3)c3c(N)ncnc3n2C)cn1 [Example 1433]	< 100	≤ 100	–
C#Cc1nc2cc(-c3c(-c4ccc(Oc5nccc(C)n5)c(F)c4)c4c(N)ncnc4n3C)c(C)cc2n1C [Example 1434]	< 100	≤ 100	–
C=C(C)C(=O)Nc1ccc(-c2c(-c3ccc(OCc4ccccc4)c(F)c3)c3c(N)ncnc3n2C)cc1 [Example 1435]	1000 to 100000	1000 to 100000	–
C=C(C)C(=O)Nc1ccc(-c2c(-c3ccc(OCc4ccccn4)c(F)c3)c3c(N)ncnc3n2C)cc1 [Example 1436]	1000 to 100000	1000 to 100000	–
C=C(C)C(=O)Nc1ccc(-c2c(-c3ccc(O)c(F)c3)c3c(N)ncnc3n2C)cc1 [Example 1437]	250 to 1000	1000 to 100000	–
C#Cc1nc(C)c(-c2c(-c3ccc(Oc4nccc(C)n4)c(F)c3)c3c(N)ncnc3n2C)c(C)n1 [Example 1438]	< 100	≤ 100	–
C#Cc1cc(C)c(-c2c(-c3ccc(Oc4nccc(C)n4)c(F)c3)c3c(N)ncnc3n2C)cn1 [Example 1439]	< 100	–	≤ 100
C#Cc1cc2c(cn1)-c1c(-c3ccc(Oc4nccc(C)n4)c(F)c3)c3c(N)ncnc3n1CCO2 [Example 1440]	< 100	≤ 100	–
C#Cc1cc2c(cn1)-c1c(-c3ccc(Oc4nccc(C)n4)c(F)c3)c3c(N)ncnc3n1[C@H](C)CO2 [Example 1441]	250 to 1000	100 to 250	–
C#Cc1cc2c(cn1)-c1c(-c3ccc(Oc4nccc(C)n4)c(F)c3)c3c(N)ncnc3n1[C@@H](C)CO2 [Example 1442]	1000 to 100000	250 to 1000	–
C#Cc1ccc2c(n1)CCCn1c-2c(-c2ccc(Oc3nccc(C)n3)c(F)c2)c2c(N)ncnc21 [Example 1443]	100 to 250	≤ 100	–
C#Cc1cc2c(cn1)-c1c(-c3ccc(Oc4nccc(C)n4)c(F)c3)c3c(C)ncnc3n1CCC2 [Example 1445]	< 100	≤ 100	–
C#Cc1cc(OCCO)c(-c2[nH]c3ncnc(N)c3c2-c2ccc(Oc3nccc(C)n3)c(F)c2)cn1 [Example 1447]	< 100	≤ 100	–
C#Cc1cc(OC)c(-c2c(-c3ncc(Oc4nccc(C)n4)cc3F)c3c(N)ncnc3n2C)cn1 [Example 1452]	< 100	≤ 100	–
